Results reported in PMC9516332 (Frontiers in Oncology, 2022).
Read-outs that look alike come from different tables or passages of the source.

Columns and labels:
Test in all cases: Kinase panel profiling at 1 µmol/L (MSA or IMAP), percentage inhibition
Format in all cases: biochemical
[1] = molecular target: panel of 255 wild-type kinases (Homo sapiens, UniProt O14578); conditions: read-out: %-inhibition at 1 µmol/L, CRIK
[2] = molecular target: T1, panel of 255 wild-type kinases (Homo sapiens, UniProt O15111); conditions: read-out: %-inhibition at 1 µmol/L, IKKα
T1 sequence (O15111 1-745): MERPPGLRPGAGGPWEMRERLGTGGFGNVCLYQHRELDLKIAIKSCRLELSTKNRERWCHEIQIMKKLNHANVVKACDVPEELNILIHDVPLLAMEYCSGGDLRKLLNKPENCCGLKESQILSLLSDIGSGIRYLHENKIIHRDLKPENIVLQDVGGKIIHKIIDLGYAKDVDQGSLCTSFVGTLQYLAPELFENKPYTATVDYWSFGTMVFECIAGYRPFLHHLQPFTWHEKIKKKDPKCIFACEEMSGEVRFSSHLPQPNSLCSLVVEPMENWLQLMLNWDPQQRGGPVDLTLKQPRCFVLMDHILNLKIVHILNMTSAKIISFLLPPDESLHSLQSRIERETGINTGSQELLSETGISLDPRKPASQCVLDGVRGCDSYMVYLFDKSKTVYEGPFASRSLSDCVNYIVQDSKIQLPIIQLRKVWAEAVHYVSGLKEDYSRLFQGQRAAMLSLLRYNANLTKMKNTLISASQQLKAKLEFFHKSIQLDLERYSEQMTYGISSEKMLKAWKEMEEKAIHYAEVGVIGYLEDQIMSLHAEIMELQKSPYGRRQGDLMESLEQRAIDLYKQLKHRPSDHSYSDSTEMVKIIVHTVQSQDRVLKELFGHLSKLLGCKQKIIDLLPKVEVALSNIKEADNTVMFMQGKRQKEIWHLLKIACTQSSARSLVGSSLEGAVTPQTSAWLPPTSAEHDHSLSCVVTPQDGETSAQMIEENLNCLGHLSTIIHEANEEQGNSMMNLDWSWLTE

[3] = molecular target: panel of 255 wild-type kinases (Homo sapiens, UniProt O75582); conditions: read-out: %-inhibition, MSK1
[4] = molecular target: panel of 255 wild-type kinases (Homo sapiens, UniProt P07948); conditions: read-out: %-inhibition at 1 µmol/L, LYNa
[5] = molecular target: panel of 255 wild-type kinases (Homo sapiens, UniProt P16591); conditions: read-out: %-inhibition at 1 µmol/L, FER
[6] = molecular target: panel of 255 wild-type kinases (Homo sapiens, UniProt P17252); conditions: read-out: %-inhibition at 1 µmol/L, PKCα
[7] = molecular target: panel of 255 wild-type kinases (Homo sapiens, UniProt P22612); conditions: read-out: %-inhibition at 1 µmol/L, PKACγ
[8] = molecular target: panel of 255 wild-type kinases (Homo sapiens, UniProt P28482); conditions: read-out: %-inhibition at 1 µmol/L, Erk2
[9] = molecular target: panel of 255 wild-type kinases (Homo sapiens, UniProt P49674); conditions: read-out: %-inhibition at 1 µmol/L, CK1ε
[10] = molecular target: T2, panel of 255 wild-type kinases (Homo sapiens, UniProt Q05513); conditions: read-out: %-inhibition at 1 µmol/L, PKCζ
T2 sequence (Q05513 1-592): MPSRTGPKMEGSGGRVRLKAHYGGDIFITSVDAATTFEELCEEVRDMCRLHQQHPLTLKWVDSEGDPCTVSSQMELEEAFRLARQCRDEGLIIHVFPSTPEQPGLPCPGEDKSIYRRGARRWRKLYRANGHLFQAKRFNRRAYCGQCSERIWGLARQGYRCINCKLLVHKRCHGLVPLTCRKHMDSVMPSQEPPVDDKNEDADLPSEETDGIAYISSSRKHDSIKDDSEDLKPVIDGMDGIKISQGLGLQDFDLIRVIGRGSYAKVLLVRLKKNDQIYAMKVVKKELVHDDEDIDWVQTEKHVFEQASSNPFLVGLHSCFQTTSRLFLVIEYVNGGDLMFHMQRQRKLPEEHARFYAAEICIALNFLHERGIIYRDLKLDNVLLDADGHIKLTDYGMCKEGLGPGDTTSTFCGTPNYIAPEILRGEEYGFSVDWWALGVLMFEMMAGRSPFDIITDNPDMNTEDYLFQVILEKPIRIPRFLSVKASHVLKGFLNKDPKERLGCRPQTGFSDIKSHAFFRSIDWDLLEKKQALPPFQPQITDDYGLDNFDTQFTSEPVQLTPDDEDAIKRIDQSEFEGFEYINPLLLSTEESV

[11] = molecular target: T3, panel of 255 wild-type kinases (Homo sapiens, UniProt Q96KB5); conditions: read-out: %-inhibition at 1 µmol/L, PBK
T3 sequence (Q96KB5 1-322): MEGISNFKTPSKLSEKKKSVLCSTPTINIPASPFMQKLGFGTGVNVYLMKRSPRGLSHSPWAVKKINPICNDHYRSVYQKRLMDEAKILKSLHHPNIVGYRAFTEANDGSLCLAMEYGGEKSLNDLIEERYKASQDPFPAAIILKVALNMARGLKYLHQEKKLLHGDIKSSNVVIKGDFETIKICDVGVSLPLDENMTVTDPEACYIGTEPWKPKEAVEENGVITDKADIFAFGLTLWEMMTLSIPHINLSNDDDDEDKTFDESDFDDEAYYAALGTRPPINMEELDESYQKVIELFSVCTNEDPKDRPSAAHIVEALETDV

[12] = molecular target: panel of 255 wild-type kinases (Homo sapiens, UniProt Q9Y6E0); conditions: read-out: %-inhibition, MST3
[13] = kinase CRIK, 1 µmol/L single concentration
[14] = kinase IKKα, 1 µmol/L single concentration
[15] = MSK1, 1 µmol/L single concentration
[16] = kinase LYNa, 1 µmol/L single concentration
[17] = kinase FER, 1 µmol/L single concentration
[18] = kinase PKCα, 1 µmol/L single concentration
[19] = kinase PKACγ, 1 µmol/L single concentration
[20] = kinase Erk2, 1 µmol/L single concentration
[21] = kinase CK1ε, 1 µmol/L single concentration
[22] = kinase PKCζ, 1 µmol/L single concentration
[23] = kinase PBK, 1 µmol/L single concentration
[24] = MST3, 1 µmol/L single concentration

SMILES	inhibition at 1 µM [1, 13] [%]	inhibition at 1 µM [2, 14] [%]	inhibition at 1 µM [3, 15] [%]	inhibition at 1 µM [4, 16] [%]	inhibition at 1 µM [5, 17] [%]	inhibition at 1 µM [6, 18] [%]	inhibition at 1 µM [7, 19] [%]	inhibition at 1 µM [8, 20] [%]	inhibition at 1 µM [9, 21] [%]	inhibition at 1 µM [10, 22] [%]	inhibition at 1 µM [11, 23] [%]	inhibition at 1 µM [12, 24] [%]	other results
COC(=O)N[C@@H](C)CNc1nccc(-c2cn(C(C)C)nc2-c2cc(Cl)cc(NS(C)(=O)=O)c2F)n1 [encorafenib]	2.72	12	11	5	5	5	-2.32	2.55	15	19	8	7	–
CCN1CCN(c2ccc(Nc3cc(N(C)C(=O)Nc4c(Cl)c(OC)cc(OC)c4Cl)ncn3)cc2)CC1 [infigratinib]	-2.56	2.62	2.27	84	9.48	-4	-0.0435	-4	-6.49	3.18	-1.71	7	–
COc1ccc(CN2C3CC2CN(c2ccc(-c4cc(OCC(C)(C)O)cn5ncc(C#N)c45)cn2)C3)cn1 [selpercatinib]	-4.75	-1.36	24	60	35	3.23	-2.63	-4	2.36	-1	-7	6	–
Cn1cnc2c(F)c(Nc3ccc(Br)cc3Cl)c(C(=O)NOCCO)cc21 [selumetinib]	-2.33	-0.157	3	6.53	1.22	0.203	-4	-4.4	-0.361	1	-3	3	–
CCN1C(=O)N(c2c(F)c(OC)cc(OC)c2F)Cc2cnc3[nH]c(CN4CCOCC4)cc3c21 [pemigatinib]	-4.34	-6	3.7	66	-3	-1.62	-3.56	-1.6	1.32	-0.0817	-5.57	80	–
Cn1cc(-c2cc3c(N4CCN(c5ncc([C@@](C)(N)c6ccc(F)cc6)cn5)CC4)ncnn3c2)cn1 [avapritinib]	-0.548	2.41	2.36	87	1.71	5	4.43	5	2.14	-0.226	-3	12	–
CNC(=O)c1ccc(-c2cnc3ncc(Cc4ccc5ncccc5c4)n3n2)cc1F [capmatinib]	–	–	–	–	–	–	–	–	–	–	–	–	inhibition at 1 µM [1]: -4.75%; inhibition at 1 µM [2]: 1.1%; inhibition at 1 µM [3]: 4%; inhibition at 1 µM [4]: 1.12%; inhibition at 1 µM [5]: 2.2%; inhibition at 1 µM [6]: -3.51%; inhibition at 1 µM [7]: -1.43%; inhibition at 1 µM [8]: 1.14%; inhibition at 1 µM [9]: -6%; inhibition at 1 µM [10]: 0.759%; inhibition at 1 µM [11]: -4%; inhibition at 1 µM [12]: 0.296%
C[C@H](Nc1ncnc2nc[nH]c12)c1cc2cccc(Cl)c2c(=O)n1-c1ccccc1 [duvelisib]	-3.16	8	-8	0.825	-1.81	0.321	-4	0.0602	5	16	-1.84	0.418	–
